Non-standard residues stand in square brackets, D forms with d. Residues, ends and D or L forms follow the SMILES beside them. *: point of attachment. Hexanoyl = CCCCCC(=O)*; Ahx = NCCCCCC(=O)O
Key:
[1] = Fosgonimeton CNS distribution in rats; format: in vivo, rat; conditions: 12 mg/kg fosgonimeton SC
Protocol: Three male Sprague Dawley rats per time point were given 12 mg/kg fosgonimeton via SC injection. At 0.16, 0.5, and 1 h after dosing, animals were humanely killed and perfused with chilled saline. Brains were collected and dissected into the following brain regions: whole brain, striatum, olfactory bulb, hippocampus, cerebellum, cerebral cortex, and brainstem. Brain regions were homogenized and the exposures of fosgonimeton and fosgo-AM were determined by LC/MS/MS.

[2] = system: primary rat cortical neurons; assay: Neuroprotection, Cell Titer-Glo cell viability assay; format: cell-based; conditions: for percentage of recovery of cell viability: 1 µM, 24 h
Protocol: A Cell Titer-Glo (CTG) Luminescent Cell Viability Assay (Promega, Cat #G7571, Madison, Wisconsin) was used to assess the neuroprotective potential of fosgo-AM. Brain cortices were dissected from P1–3 rat pups and homogenized in DMEM containing 10% FBS. The resulting suspension was then incubated with a DNase/papain/trypsin solution for 30 min at 37 °C, followed by incubation in a collagenase solution for 1 h. Cells were then seeded at 5000 cells/well in 384-well plates and maintained at 37 °C and 5% CO2 in Complete Neurobasal Medium supplemented with B27/GDNF/BDNF containing 10% FBS. One day later, cultures were switched to serum-free neurobasal medium supplemented with 2% B27 and maintained until neuronal maturity (35–40 DIV). Media were changed every 3 days, and fresh medium was applied 24 h before each experiment. Cells were then treated with fosgo-AM at 1 µM, 100 nM, 10 nM, or 1 nM in a 0.5% DMSO vehicle for 15 min, and subjected to several conditional insults, including 1-methyl-4-phenylpryidinium (MPP+; 500 µM), glutamate (25 µM), lipopolysaccharide (LPS; 1 µM), or hydrogen peroxide (H2O2; 1 µM) for 24 h. After 24 h, 25 µL CTG reagent was added to each well and the plate was incubated with shaking for 15 min. Luminescence measurements to assess relative levels of ATP were performed on an Envision plate reader (PerkinElmer, Waltham, Massachusetts). Data for the vehicle control were set to 100% cell viability, and data for each other group were averaged, normalized to vehicle control, and presented as mean ± SEM. Data were assessed for normality (Shapiro–Wilk) and homoscedasticity (Brown-Forsythe). Statistical analyses were performed using one-way ANOVA with Tukey’s Multiple Comparison test (Prism GraphPad, San Diego, California). A value of p < 0.05 was considered to represent a statistically significant difference.

[3] = Fosgonimeton CNS distribution in mice; format: in vivo, mouse; conditions: 5 mg/kg fosgonimeton IV, whole brain, 0.16 h
Protocol: Four C57BL/6 mice—2 males and 2 females—were treated with 5 mg/kg fosgonimeton via intravenous (IV) injection. At 0.16 h after dosing, animals were humanely killed and perfused with normal saline. The whole brain was collected and homogenized before determination of fosgonimeton and fosgo-AM tissue penetration by LC/MS/MS.

[4] = system: AKT (Ser473); assay: Phospho-AKT HTRF assay in HEK293 cells; format: cell-based, human; conditions: HEK293, subthreshold HGF 10 ng/mL + fosgo-AM 0.1 µM, vs HGF alone
Excerpt: To determine phosphoactivation status of the intracellular signaling molecules ERK (Thr202/Tyr204) or AKT (Ser473), we used homogenous time-resolved fluorescence (HTRF) kits to assess phosphorylation status based on the energy transfer between donor and acceptor phospho-ERK (pERK) or phospho-AKT (pAKT) antibodies. HTRF kit processing for pERK (Phospho-ERK [Thr202/Tyr204] cellular Advanced kit, #64AERPEG, Cisbio, Codolet, France) and pAKT (Phospho-AKT [Ser473] cellular kit, #64AKSPEG, Cisbio, Codolet, France) were carried out per manufacturer instructions. In brief, HEK293 cells were grown at 37 °C, 5% CO2 in DMEM + 10% FBS until approximately 80% confluent. Cells were seeded in polystyrene-treated 96-well cell culture plates at approximately 50,000 cells/well and cultured overnight in 50 µL serum-free growth media. […] Fluorescence emission at 2 different wavelengths (665 nm and 620 nm) were measured on an Envision plate reader (PerkinElmer, Waltham, Massachusetts), and the HTRF ratio of the acceptor and donor emission signals for each well was calculated as follows: HTRF ratio = (665 nm/620 nm) × 10,000. […] Data were assessed for normality (Shapiro–Wilk) and homoscedasticity (Brown-Forsythe). Statistical significance was determined by one-way analysis of variance (ANOVA) with Tukey’s multiple comparison post-test. […]

[5] = Plasma PK in rats after SC injection; format: in vivo, rat
Protocol: Four male rats were treated with 10 mg/kg fosgo-AM in DMSO via SC injection. Blood was serially collected at 0.08, 0.25, 0.5, 1, 2, and 4 h after dosing. Plasma was obtained by centrifugation with 2% disodium ethylenediaminetetraacetic acid (EDTA) as an anticoagulant. Plasma samples were precipitated with acetonitrile containing internal standard, and the concentration of fosgo-AM was determined by LC/MS/MS.
This study was conducted as described in the “Fosgo-AM PK in Rats” section with the following changes: animals were given 12 mg/kg fosgonimeton in saline with 0.1% glycine via SC injection, and a dose-linear correction was applied to normalize the dose to 10 mg/kg for comparison with the fosgo-AM study. Sample concentrations of both fosgonimeton and fosgo-AM were determined.

## CCCCCC(=O)N[C@@H](Cc1ccc(O)cc1)C(=O)N[C@H](C(=O)NCCCCCC(N)=O)[C@@H](C)CC [fosgo-AM] (Hexanoyl-Tyr-Ile-[Ahx]-NH2)
[1]; all regions
  time to maximum concentration (Tmax) in brain regions: 10 min
[1]; brainstem
  Cmax, ng/g ± SEM: 58.3 ± 11.3 ng/g
  Tmax: 9.6 min
[1]; cerebellum
  Cmax, ng/g ± SEM: 23.8 ± 4.1 ng/g
  Tmax: 9.6 min
[1]; cerebral cortex
  Cmax, ng/g ± SEM: 36.5 ± 12.0 ng/g
  Tmax: 9.6 min
[1]; hippocampus
  Cmax, ng/g ± SEM: 49.8 ± 30.5 ng/g
  Tmax: 9.6 min
[1]; olfactory bulb
  Cmax, ng/g ± SEM: 43.7 ± 7.3 ng/g
  Tmax: 9.6 min
[1]; striatum
  Cmax, ng/g ± SEM: 24.1 ± 12.8 ng/g
  Tmax: 9.6 min
[1]; whole brain
  Cmax, ng/g ± SEM: 31.9 ± 23.8 ng/g
  Tmax: 9.6 min
[2]; versus H2O2 (1 µM)
  percentage of recovery of cell viability: 144%
[2]; versus LPS (1 µM)
  percentage of recovery of cell viability: 93%
[2]; versus MPP+ (500 µM)
  percentage of recovery of cell viability: 85%
[2]; versus glutamate (25 µM)
  percentage of recovery of cell viability: 61%
[2]; all tested concentrations (1 nM–1 µM), against all insults (MPP+, glutamate, LPS, H2O2)
  cell viability: Significant improvement in cell viability
[3]
  Cmax, ng/g ± SEM: 7.9 ± 2.3 ng/g
[4]
  pAKT levels: significant increase
[5]; after SC delivery of fosgonimeton (12 mg/kg, normalized to 10 mg/kg), after metabolism
  fosgo-AM maximum concentration (Cmax) in plasma: 1198 ng/mL
[5]; after direct SC delivery of fosgo-AM 10 mg/kg
  fosgo-AM maximum concentration (Cmax) in plasma: 329 ng/mL

— paper PMC10121968, “Fosgonimeton, a Novel Positive Modulator of the HGF/MET System, Promotes Neurotrophic and Procognitive Effects in Models of Dementia” (Neurotherapeutics, 2022)
